Reference: BindingDB's records for doi:10.1021/jm050373g (Merck Research Laboratories, 2005)
pEC50: −log10 of the molar value.

Each compound was assayed against PPAR-alpha (Mesocricetus auratus) (assay: Effective concentration against hamster PPAR-alpha in Gal4 transactivation assay).

`CCC1(C(=O)O)Cc2cc(OCCCOc3ccc(C(C)(C)C)cc3Cl)ccc2O1` (centres undefined) [5-[3-(4-tert-Butyl-2-chloro-phenoxy)-propoxy]-2-ethyl-2,3-dihydro-benzofuran-2-carboxylic acid] and `CCC1(C(=O)O)Cc2cc(OCCCOc3ccc(OCC(F)(F)F)cc3Cl)ccc2O1` (centres undefined) [5-{3-[2-Chloro-4-(2,2,2-trifluoro-ethoxy)-phenoxy]-propoxy}-2-ethyl-2,3-dihydro-benzofuran-2-carboxylic acid] are within 0.2 log units of each other in pEC50: 6.55 for the first, 6.40 for the second.

`CC(C)[C@@]1(C(=O)O)Cc2cc(OCCOc3ccc(OC(F)(F)F)cc3Cl)ccc2O1` [(R)-5-[2-(2-Chloro-4-trifluoromethoxy-phenoxy)-ethoxy]-2-isopropyl-2,3-dihydro-benzofuran-2-carboxylic acid] and `CC(C)[C@@]1(C(=O)O)Cc2cc(OCCCOc3cc(C(F)(F)F)ccc3Cl)ccc2O1` [(R)-5-[3-(2-Chloro-5-trifluoromethyl-phenoxy)-propoxy]-2-isopropyl-2,3-dihydro-benzofuran-2-carboxylic acid] are within 0.2 log units of each other in pEC50: 6.43 for the first, 6.38 for the second.
